Where two headings read alike, the source gives them in different places.
What was measured:
erythrocyte AChE [1] = biological target: T1, erythrocyte AChE (Homo sapiens, UniProt P22303); conditions: cited from earlier work; for reported or expected adverse health outcome: ref Table S2
erythrocyte AChE [2] = biological target: T1, erythrocyte AChE; assay: Exposure Activity Ratio (EAR) and Dietary Comparator Ratio (DCR) calculation; set-up: from tissue; host or cells: human whole peripheral blood (erythrocytes), K2EDTA anticoagulant; conditions: for calculated DCR value / calculated EARtest value: human
Description: The DCR value for an exposure scenario was calculated as the ratio of EARtest and EARcomparator (eq 1). The EARtest is scenario-specific and was defined with the IC50 of the tested organophosphate oxon for in vitro erythrocyte AChE inhibition and the PBK model-simulated CBmaxoxon at the defined exposure level (eq 2).
The DCR-based predictions were evaluated by comparing the obtained DCR results with actual knowledge of the adverse health effects reported for the respective exposure scenarios. Adverse effects cannot be ruled out for human exposure scenarios with a DCR result greater than 1, while exposure scenarios with a DCR result less than or equal to 1 are considered to raise no safety concern.[18]−[20] Once validated as an adequate predicting tool, the DCR approach was applied for evaluating the safety of exposure scenarios, for which no information on the resulting toxic outcomes was reported at the defined dose levels for humans.

[3] = QSAR-based prediction; ref Punt et al. 2022; Moerenhout et al. 2024; cited from earlier work
erythrocyte AChE [4] = biological target: T1, erythrocyte AChE; assay: biochemical; assay type: biochemical; set-up: from tissue; host or cells: human whole peripheral blood (erythrocytes), K2EDTA anticoagulant
Description: Ethanol (UPLC/MS grade) was ordered from Biosolve (Valkenswaard, The Netherlands). Ultrapure water used for experiments was prepared with a Sartorius Arium Pro ultrapure water system (Göttingen, Germany). Human whole peripheral blood with K2EDTA as an anticoagulant was used for the in vitro AChE inhibition assay. K2EDTA acts as an inhibitor to the paraoxonase 1 (PON1) enzyme,[23] preventing the underestimation of the inhibition potential of organophosphate oxons due to the nontarget clearance by PON1 present in the blood samples.
Inhibition of erythrocyte AChE by the organophosphate oxon or the corresponding oxon metabolite of an organothiophosphate was measured in vitro using the method previously described.[12] The ethanolic stock solution of the test oxon was first diluted 100 times with sodium phosphate buffer (100 mM, pH 7.4), and 10 μL of the diluted solution was added to 90 μL of human whole blood sample in a 48-wells flat-bottom transparent plate (Greiner Bio-One, The Netherlands). After a 30 min incubation at room temperature, the blood samples were then diluted 20 times with ultrapure water containing 0.03% Triton-X 100 (v/v), and 20 μL of the Triton-diluted blood was incubated for 20 min following the addition of 460 μL of DTNB and 20 μL of ethopropazine (an inhibitor to plasma butyrylcholinesterase (BuChE)). After that, 100 μL of ATC was added (final concentrations of ethopropazine, DTNB, and ATC were 20 μM, 1 mM, and 1 mM, respectively), and the absorbance at 436 nm was measured continuously to detect the remaining AChE activity. Controls were carried out by replacing the test compound with sodium phosphate buffer to correct for any background absorbance.
The benchmark response (BMR) of 5% for erythrocyte AChE inhibition is a conservative end point for deriving an effect level, since regulatory bodies usually use a higher BMR (i.e., 10% or 20%) for risk assessment of acute OP pesticide exposure.[24],[25] The European Food Safety Authority (EFSA) Web tool (https://efsa.openanalytics.eu/) integrated with the R package PROAST (version 70.0) was employed for the BMC analysis (see Supporting Information).

erythrocyte AChE [5] = biological target: T1, erythrocyte AChE; set-up: from tissue; host or cells: human whole peripheral blood (erythrocytes), K2EDTA anticoagulant; method as in PMID 38008925; conditions: human blood; read-out: IC50, erythrocyte AChE inhibition; cited from earlier work
[6] = 1 mg/kg BW single oral, a volunteer, ref APVMA. 2000 (original data of Brown. 1966)
[7] = human whole blood, BMC analysis, PROAST model averaging

T1 sequence (P22303 32-617 isoform P22303-2 limits assumed): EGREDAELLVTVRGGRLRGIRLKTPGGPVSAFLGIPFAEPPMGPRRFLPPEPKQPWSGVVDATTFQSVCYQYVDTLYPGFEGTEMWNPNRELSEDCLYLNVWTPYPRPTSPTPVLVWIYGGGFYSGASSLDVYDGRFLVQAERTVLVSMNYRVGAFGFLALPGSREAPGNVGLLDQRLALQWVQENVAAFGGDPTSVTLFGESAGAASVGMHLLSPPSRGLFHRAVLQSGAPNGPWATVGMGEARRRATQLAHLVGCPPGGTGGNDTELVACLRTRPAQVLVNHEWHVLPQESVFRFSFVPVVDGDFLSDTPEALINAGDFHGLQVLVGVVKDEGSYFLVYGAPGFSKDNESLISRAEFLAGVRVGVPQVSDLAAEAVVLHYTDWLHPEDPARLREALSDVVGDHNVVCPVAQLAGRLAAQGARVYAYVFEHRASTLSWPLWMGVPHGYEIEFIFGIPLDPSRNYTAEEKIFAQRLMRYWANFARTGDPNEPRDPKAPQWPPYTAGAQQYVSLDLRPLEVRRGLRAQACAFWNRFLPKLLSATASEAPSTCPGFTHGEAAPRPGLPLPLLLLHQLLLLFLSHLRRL

Compound: CCOP(=O)(OCC)OC(=CCl)c1ccc(Cl)cc1Cl [chlorfenvinphos]
- Reported concomitant effects (signs and symptoms) (erythrocyte AChE [1]; 0.04 mg/kg BW (3 mg), first dose of repeated exposure study, male volunteers, ref APVMA. 2000 (original data of Hunter et al. 1972)): No toxic signs was observed
- Erythrocyte AChE inhibition (erythrocyte AChE [1]; [6]): 40%
- Reported concomitant effects (signs and symptoms) (erythrocyte AChE [1]; [6]): no toxic signs
- Reported erythrocyte AChE activity/inhibition (erythrocyte AChE [1]; [6]): Decreased erythrocyte AChE
- reported or expected adverse health outcome (erythrocyte AChE [1]; human, single oral 0.04 mg/kg BW, 0.04 mg/kg): negative
- reported or expected adverse health outcome (erythrocyte AChE [1]; human, single oral 0.04 mg/kg BW, listed as Chlorfenvinphos, 0.04 mg/kg): No
- reported or expected adverse health outcome (erythrocyte AChE [1]; human, single oral 1 mg/kg BW, listed as Chlorfenvinphos, 1 mg/kg): No
- calculated DCR value (erythrocyte AChE [2]; single oral 0.04 mg/kg BW): 3.8 × 10^–3
- calculated EARtest value (erythrocyte AChE [2]; single oral 0.04 mg/kg BW): 1.5 × 10^–4
- calculated EARtest value (erythrocyte AChE [2]; single oral 0.18 mg/kg BW): 6.8 × 10^–4
- calculated DCR value (erythrocyte AChE [2]; single oral 1 mg/kg BW): 0.098
- calculated EARtest value (erythrocyte AChE [2]; single oral 1 mg/kg BW): 3.9 × 10^–3
- Oral absorption rate constant [3]: 0.81 h⁻¹

Compound: CCOP(=O)(OCC)Oc1nc(Cl)c(Cl)cc1Cl [chlorpyrifos oxon]
- EARcomparator (erythrocyte AChE [2]; BMCL05/IC50 of chlorpyrifos oxon): 0.039
- BMCL05 (lower 95% confidence limit of benchmark concentration for 5% erythrocyte AChE inhibition) (erythrocyte AChE [4]; [7]): 0.015 µM
- BMCU05 (upper 95% confidence limit of benchmark concentration for 5% erythrocyte AChE inhibition) (erythrocyte AChE [4]; [7]): 0.10 µM

Compound: CCOP(=S)(OCC)Oc1nc(Cl)c(Cl)cc1Cl [chlorpyrifos]
- no-observed-adverse-effect level (NOAEL) for toxic signs and symptoms (erythrocyte AChE [1]; human volunteers, fasted overnight, single oral dose): 2 mg/kg BW
- inhibition of erythrocyte AChE (erythrocyte AChE [1]; human, in vivo, po, 2 mg/kg): 28%
- Erythrocyte AChE inhibition (erythrocyte AChE [1]; human, in vivo): 28%
- reported or expected adverse health outcome (erythrocyte AChE [1]; human, single oral 0.01 mg/kg BW, 0.01 mg/kg): negative
- reported or expected adverse health outcome (erythrocyte AChE [1]; human, single oral 0.01 mg/kg BW, listed as Chlorpyrifos, 0.01 mg/kg): No
- reported or expected adverse health outcome (erythrocyte AChE [1]; human, single oral 0.012 mg/kg BW, 0.012 mg/kg): negative
- reported or expected adverse health outcome (erythrocyte AChE [1]; human, single oral 0.012 mg/kg BW, listed as Chlorpyrifos, 0.012 mg/kg): No
- reported or expected adverse health outcome (erythrocyte AChE [1]; human, single oral 0.03 mg/kg BW, 0.03 mg/kg): negative
- reported or expected adverse health outcome (erythrocyte AChE [1]; human, single oral 0.03 mg/kg BW, listed as Chlorpyrifos, 0.03 mg/kg): No
- reported or expected adverse health outcome (erythrocyte AChE [1]; human, single oral 0.1 mg/kg BW, 0.1 mg/kg): negative
- reported or expected adverse health outcome (erythrocyte AChE [1]; human, single oral 0.1 mg/kg BW, listed as Chlorpyrifos, 0.1 mg/kg): No
- reported or expected adverse health outcome (erythrocyte AChE [1]; human, single oral 0.5 mg/kg BW, 0.5 mg/kg): negative
- reported or expected adverse health outcome (erythrocyte AChE [1]; human, single oral 0.5 mg/kg BW, listed as Chlorpyrifos, 0.5 mg/kg): No
- reported or expected adverse health outcome (erythrocyte AChE [1]; human, single oral 1 mg/kg BW, 1 mg/kg): negative
- reported or expected adverse health outcome (erythrocyte AChE [1]; human, single oral 1 mg/kg BW, listed as Chlorpyrifos, 1 mg/kg): No
- reported or expected adverse health outcome (erythrocyte AChE [1]; human, single oral 2 mg/kg BW, listed as Chlorpyrifos, 2 mg/kg): No
- reported or expected adverse health outcome (erythrocyte AChE [1]; human, single oral 214 mg/kg BW, 214 mg/kg): positive
- reported or expected adverse health outcome (erythrocyte AChE [1]; human, single oral 214 mg/kg BW, listed as Chlorpyrifos, 214 mg/kg): Yes
- reported or expected adverse health outcome (erythrocyte AChE [1]; human, single oral 300 mg/kg BW, 300 mg/kg): positive
- reported or expected adverse health outcome (erythrocyte AChE [1]; human, single oral 300 mg/kg BW, listed as Chlorpyrifos, 300 mg/kg): Yes
- calculated DCR value (erythrocyte AChE [2]; single oral 0.01 mg/kg BW): 4.6 × 10^–3
- calculated EARtest value (erythrocyte AChE [2]; single oral 0.01 mg/kg BW): 1.8 × 10^–4
- calculated EARtest value (erythrocyte AChE [2]; single oral 0.012 mg/kg BW): 2.2 × 10^–4
- calculated DCR value (erythrocyte AChE [2]; single oral 0.03 mg/kg BW): 0.014
- calculated EARtest value (erythrocyte AChE [2]; single oral 0.03 mg/kg BW): 5.4 × 10^–4
- calculated DCR value (erythrocyte AChE [2]; single oral 0.1 mg/kg BW): 0.046
- calculated EARtest value (erythrocyte AChE [2]; single oral 0.1 mg/kg BW): 1.8 × 10^–3
- calculated DCR value (erythrocyte AChE [2]; single oral 0.5 mg/kg BW): 0.23
- calculated EARtest value (erythrocyte AChE [2]; single oral 0.5 mg/kg BW): 9.2 × 10^–3
- calculated DCR value (erythrocyte AChE [2]; single oral 1 mg/kg BW): 0.48
- calculated EARtest value (erythrocyte AChE [2]; single oral 1 mg/kg BW): 0.019
- calculated DCR value (erythrocyte AChE [2]; single oral 2 mg/kg BW): 1.0
- calculated EARtest value (erythrocyte AChE [2]; single oral 2 mg/kg BW): 0.040
- calculated DCR value (erythrocyte AChE [2]; single oral 214 mg/kg BW): 38
- calculated EARtest value (erythrocyte AChE [2]; single oral 214 mg/kg BW): 1.50
- calculated DCR value (erythrocyte AChE [2]; single oral 300 mg/kg BW): 40
- calculated EARtest value (erythrocyte AChE [2]; single oral 300 mg/kg BW): 1.58
- Oral absorption rate constant [3]: 1.01 h⁻¹

Compound: CCOP(=O)(OCC)Oc1cc(C)nc(C(C)C)n1 [diazoxon]
- IC50 (erythrocyte AChE [4]): 1.82 µM

Compound: COP(=O)(OC)Oc1ccc([N+](=O)[O-])c(C)c1 [fenitrooxon]
- IC50 (erythrocyte AChE [5]): 0.84 µM

Compound: COP(=S)(OC)Oc1ccc([N+](=O)[O-])cc1 [methyl parathion]
- reported blood concentration (erythrocyte AChE [1]; 286 mg/kg BW (20 g) acute oral, person, ref Luzhnikov et al. 1977): 3 mg/L
- reported or expected adverse health outcome (erythrocyte AChE [1]; human, single oral 0.003 mg/kg BW, 0.003 mg/kg): negative
- reported or expected adverse health outcome (erythrocyte AChE [1]; human, single oral 0.003 mg/kg BW, listed as Methyl parathion, 0.003 mg/kg): No
- reported or expected adverse health outcome (erythrocyte AChE [1]; human, single oral 0.029 mg/kg BW, 0.029 mg/kg): negative
- reported or expected adverse health outcome (erythrocyte AChE [1]; human, single oral 0.029 mg/kg BW, listed as Methyl parathion, 0.029 mg/kg): No
- reported or expected adverse health outcome (erythrocyte AChE [1]; human, single oral 0.057 mg/kg BW, 0.057 mg/kg): negative
- reported or expected adverse health outcome (erythrocyte AChE [1]; human, single oral 0.057 mg/kg BW, listed as Methyl parathion, 0.057 mg/kg): No
- reported or expected adverse health outcome (erythrocyte AChE [1]; human, single oral 0.30 mg/kg BW, 0.3 mg/kg): negative
- reported or expected adverse health outcome (erythrocyte AChE [1]; human, single oral 0.30 mg/kg BW, listed as Methyl parathion, 0.3 mg/kg): No
- reported or expected adverse health outcome (erythrocyte AChE [1]; human, single oral 26 mg/kg BW, 26 mg/kg): positive
- reported or expected adverse health outcome (erythrocyte AChE [1]; human, single oral 26 mg/kg BW, listed as Methyl parathion, 26 mg/kg): Yes
- calculated DCR value (erythrocyte AChE [2]; single oral 0.003 mg/kg BW): 0.092
- calculated EARtest value (erythrocyte AChE [2]; single oral 0.003 mg/kg BW): 3.6 × 10^–3
- calculated DCR value (erythrocyte AChE [2]; single oral 0.029 mg/kg BW): 0.89
- calculated EARtest value (erythrocyte AChE [2]; single oral 0.029 mg/kg BW): 0.035
- calculated DCR value (erythrocyte AChE [2]; single oral 0.057 mg/kg BW): 1.8
- calculated EARtest value (erythrocyte AChE [2]; single oral 0.057 mg/kg BW): 0.069
- calculated DCR value (erythrocyte AChE [2]; single oral 0.30 mg/kg BW): 9.2
- calculated EARtest value (erythrocyte AChE [2]; single oral 0.30 mg/kg BW): 0.36
- calculated DCR value (erythrocyte AChE [2]; single oral 26 mg/kg BW): 927
- calculated EARtest value (erythrocyte AChE [2]; single oral 26 mg/kg BW): 36.59
- Oral absorption rate constant [3]: 0.58 h⁻¹

Compound: CCCSP(=O)(OCC)Oc1ccc(Br)cc1Cl (stereo not shown) [profenofos]
- Reported concomitant effects (signs and symptoms) (erythrocyte AChE [1]; 1600 mg/kg BW (112 g) acute oral, person, ref Seno et al. 1998): Died
- reported or expected adverse health outcome (erythrocyte AChE [1]; human, single oral 1600 mg/kg BW, 1600 mg/kg): positive
- reported or expected adverse health outcome (erythrocyte AChE [1]; human, single oral 1600 mg/kg BW, listed as Profenofos, 1600 mg/kg): Yes
- calculated DCR value (erythrocyte AChE [2]; single oral 1600 mg/kg BW): 272
- calculated EARtest value (erythrocyte AChE [2]; single oral 1600 mg/kg BW): 10.75
- Oral absorption rate constant [3]: 0.90 h⁻¹
- IC50 (erythrocyte AChE [4]): 94.5 µM

From paper PMC11966747, “Next Generation Risk Assessment of Acute Neurotoxicity from Organophosphate Exposures Using the In Vitro–In Silico Derived Dietary Comparator Ratio” (Environmental Science & Technology, 2025)
